From patent publication US10058540B2, “2-amino-5,5-difluoro-6-(fluoromethyl)-6-phenyl-3,4,5,6-tetrahydropyridines as BACE1 inhibitors” (H. Lundbeck A/S, priority 2014, dated 2018) come the findings set out here.

Data set [1] addresses T1, BACE1 (Homo sapiens (Human), UniProt P56817). Description: BACE1 binding assay (SPA-based, radioligand). The conditions noted are these: pH 4.5, Ki=IC50/(1+L/Kd). As for the experimental part:
The binding assay was performed as SPA-based assay using a biotinylated form of human BACE1 recombinantly expressed and subsequently purified from Freestyle HEK293 cells. The binding assay was run in a 50 mM sodium acetate buffer, pH 4.5 containing 50 mM NaCl and 0.03% Tween-20 in white clear bottom 384 plates (Corning #3653). 10 nM (final concentration) radioligand ([^3H]-N-((1S,2R)-1-benzyl-3-cyclopropylamino-2-hydroxy-propyl)-5-(methanesulfonyl-methyl-amino)-N-((R)-1-phenyl-ethyl)-isophthalamide) (TRQ11569 purchased from GE Healthcare) was mixed with test compound at a given concentration, 6 nM (final concentration) human BACE1 and 25 μg Streptavidin coated PVT core SPA beads (RPNQ0007, GE Healthcare Life Sciences) in a total volume of 40 μl. Several concentrations of each test compound were tested in the assay for IC50 determination. The plates were incubated for one hour at room temperature and counted in a Wallac Trilux counter. Total and non-specific binding were determined using buffer and 1 μM (final concentration) of the high affinity BACE1 reference inhibitor (S)-6-[3-chloro-5-(5-prop-1-ynyl-pyridin-3-yl)-thiophen-2-yl]-2-imino-3,6-dimethyl-tetrahydro-pyrimidin-4-one, respectively. For each test compound, a IC50 value (the concentration mediating 50% inhibition of the specific binding of the radioligand) was determined from concentration-response curve and used to calculate the Ki from the equation Ki=IC50/(1+L/Kd), where L and Kd are the final concentration of the radioligand used in the assay and the dissociation constant of the radioligand, respectively. The Kd of the radioligand was determined from saturation binding experiments.

The test system of data set [2] is P-gp (MDR1). Description: MDCK-MDR1 assay (permeability / Pgp efflux). It counts as in vitro ADME. The conditions noted are these: dog, Papp BA/Papp AB, Pgp substrate when ≥2. The procedure:
The permeability of the test compounds was assessed in MDCK-MDR1 cells that were cultured to confluency (4-6 days) in a 96 transwell plate. Test compounds were diluted with the transport buffer (HBSS+1% BSA) to a concentration of 0.5 μM and applied to the apical or basolateral side of the cell monolayer. Permeation of the test compounds from A to B direction or B to A direction was determined in triplicate over a 60-minute incubation time at 37° C. and 5% CO2 with a relative humidity of 95%. Test compounds were quantified by LC-MS/MS analysis based on the peaks area ratios of analyte/IS in both the receiver and donor wells of the transwell plate.
The apparent permeability coefficient Papp (cm/s) was calculated using the equation: Papp=(dCr/dt)×Vr/(A×C0) Where dCr/dt is the cumulative concentration of compound in the receiver chamber as a function of time (μM/s); Vr is the solution volume in the receiver chamber (0.05 mL on the apical side; 0.25 mL on the basolateral side); A is the surface area for the transport, i.e. 0.0804 cm^2 for the area of the monolayer; C0 is the initial concentration in the donor chamber (μM).
Compounds are classified Pgp substrates when efflux ratio (Papp BA/Papp AB) is ≥2.

Data set [3] relates to Aβ40. Put plainly: Assessment of Aβ peptide levels in rat brain and plasma following BACE1 inhibition (Aβ40 ELISA). It counts as in vivo. The note with it: 3 hours post dose, vs vehicle. As for the experimental part:
Assessment of Aβ Peptide Levels in Rat Brain and Plasma Following BACE1 Inhibition. Animals.
Young adult Male Sprague Dawley rats of approximately 250 g weight were purchased from Charles River and received 0-30 mg/kg of vehicle (10% HP betaCD+1M MeSO4, pH 2.5) or test compounds (dissolved in vehicle) only by oral gavage (p.o). The compounds are dosed at a volume of […]. Cohorts of 5-10 animals were established for each treatment condition.
At T=180 minutes after initial dosing the animals were stunned and decapitated with a guillotine. Trunk-blood was sampled in EDTA coated tubes after decapitation of the animal. The blood was centrifuged at 2200 G at 4° C. for 15 minutes and the plasma was collected and frozen at −80° C. The blood was aliquoted for Aβ ELISA and DMPK analysis. Immediately following sacrifice, the brain was extracted and split into 2 halves. The right hemibrains were snap frozen on dry ice and stored at −80° C. The left half was dissected; with the front forebrain taken for Aβ ELISA and the remainder used for DMPK analysis. These samples were also snap frozen on dry ice and stored at −80° C. until use for analysis.
The cortex samples were thawed slightly on wet ice before they were homogenized with a small volume dispersing instrument (T10 basic ULTRA-TURRAX®) which was set at speed 5 for approximately 5-7 sec. The tissue was processed in a 10 times volume of the weight, for example 100 mg of tissue was homogenized in 1000 μL of Homogenization buffer. Homogenization buffer: 50 ml Milli Q water+[…]+0.2% Diethylamin (DEA)+1 tablet of Complete Protease inhibitor cocktail+1 nM 4-(2-aminoethyl)benzenesulfonyl fluoride hydrochloride irreversible serine protease inhibitor (AEBSF).
After homogenization 450 μL aliquots of the samples are collected into a 1.5 ml Eppendorf tube and placed on wet ice, 0.5% NP-40 (50 ul) was added to all samples and then they were incubated on ice for 30 min. After which all samples were sonicated using an Ultrasonic homogenizer with 20 kHz homogeneous sound (SONOPLUS HD2070, Bandelin Electronic) 10 pulse set at 12-13% power to extract all the Aβ species. The samples were then centrifuged (Ole Dich 157 MPRF Micro centrifuge) at 20000 G for 20 minutes at 4° C. After centrifugation 285 μL of the supernatant was pipetted into 600 μL microtubes tubes and neutralized with 15 μL of 1M Tris-HCL buffer.
WAKO 294-62501 Human/Rat Abeta amyloid (40) kit was used for all ELISA analyses. 30 μL plasma samples or 30 μL of the cortex supernatants generated as described above were placed in 600 μL microtubes tubes on wet ice. To this 30 μL of 8M Urea (AppliChem A1049, 9025) are added to generate a 2-fold dilution. Both plasma and cortex supernatants are incubated on ice for 30 min. Standard rows were prepared from the standard peptide stock provided in the kit and standard diluent containing 1.6M Urea (200 μL 8M Urea+800 μL of standard diluent) and 0.8M Urea (400 μL 8M Urea+3600 μL Standard diluent). A serial 2-fold dilution of Aβ40 from 100 pmol/ml to 0 pmol/L was prepared for the assay.
After incubation with urea, all samples were further diluted by addition of 5 times standard diluent from the Kit. This was done by adding 240 μL Standard Diluent to 60 μL sample/urea mixture, which was then mixed well. 100 μL of each diluted sample was pipetted into designated wells of the ELISA plate in duplicates. The plate was then covered and incubated overnight at 4° C. The following day, the ELISA kit was brought to room temperature before use. The incubated plate was washed 5 times with the 20× washing solution diluted in Milli Q water. 100 μL HRP-conjugate was applied to each well, and the plate was covered and incubates at 4° C. for 1 hr. The wash was repeated again for 5 times. 100 μL 3,3′,5,5′-Tetramethylbenzidine (TMB) solution was applied to each well and the plate was covered and incubated in the dark at room temperature for 30 minutes. […]

Data set [4] has as its target T1, BACE1. Put plainly: BACE1 efficacy assay (FRET-based, commercial BACE1 kit). The note with it: 10 μM test compound. In kind it is biochemical. The procedure: The efficacy assay was performed as a FRET-based assay using a commercially available BACE1 kit (Life Technologies, P2985). 2 μl test compound at 10 μM (final concentration) and 15 μl BACE1 enzyme from the kit (final concentration 3 nM) were preincubated for 15 minutes at room temperature before addition of 15 μl of substrate from the kit (250 nM final concentration) and incubated for additional 90 minutes at room temperature. The assay plate was subsequently read in a Pherastar (Ex540/Em590). The enzyme activity observed in presence of test compound were normalized to the enzyme activity observed in presence of buffer and 10 μM (final concentration) of the high affinity BACE1 reference inhibitor (S)-6-[3-Chloro-5-(5-prop-1-ynyl-pyridin-3-yl)-thiophen-2-yl]-2-imino-3,6-dimethyl-tetra-hydropyrimidin-4-one, respectively. The efficacy of the test compounds was evaluated at 10 μM (final concentration) and defined as the percent inhibition of the enzyme activity using the equation % inhibition=100%−normalized enzyme activity in percent.

T1 sequence (P56817 46-501): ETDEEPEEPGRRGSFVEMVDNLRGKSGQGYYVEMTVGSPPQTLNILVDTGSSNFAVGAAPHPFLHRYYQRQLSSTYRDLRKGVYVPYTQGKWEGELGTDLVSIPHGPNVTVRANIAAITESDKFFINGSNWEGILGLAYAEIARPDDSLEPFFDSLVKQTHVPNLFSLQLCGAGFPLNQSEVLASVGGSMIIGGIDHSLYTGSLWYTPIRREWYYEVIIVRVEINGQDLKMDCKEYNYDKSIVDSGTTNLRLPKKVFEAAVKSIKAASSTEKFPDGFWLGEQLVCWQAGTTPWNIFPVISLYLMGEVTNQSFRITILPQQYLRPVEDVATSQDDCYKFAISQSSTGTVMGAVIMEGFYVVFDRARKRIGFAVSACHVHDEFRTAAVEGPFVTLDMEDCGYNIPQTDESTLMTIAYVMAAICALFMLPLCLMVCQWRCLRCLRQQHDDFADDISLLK

With `COc1ccc(C(=O)Nc2cc(F)c(F)c([C@@]3(CF)N=C(N)CCC3(F)F)c2)nc1` [Compound 15, (S)-N-(3-(6-amino-3,3-difluoro-2-(fluoromethyl)-2,3,4,5-tetrahydropyridin-2-yl)-4,5-difluorophenyl)-5-methoxypicolinamide], affinity in data set [1] was put at a Ki of 9 nM. Besides, the efflux ratio (in general, the permeability from basolateral to apical divided by that in the opposite direction, in the common usage) at 60 min, 0.5 μM in data set [2] was 1.09. The Aβ40 reduction in data set [3] (rat brain, 10 mg/kg p.o.) is given as 33%; in data set [3] (rat brain, 30 mg/kg p.o.) it was 43%; in data set [3] (rat plasma, 10 mg/kg p.o.), 34%; in data set [3] (rat plasma, 30 mg/kg p.o.), 34%. The inhibition (in general, the relative decrease from the control value, in per cent) at 10 µM in data set [4] turned out to be 106%.
